Results from patent publication US7417024B2, “Template-fixed peptidomimetics as inhibitors of serine proteases” (Polyphor Ltd., priority 2001, dated 2008).
One block for each molecule: values may come before it. Where a SMILES comes first, the peptide text is derived from it. Bridges are numbered along the chain shown (N, C = ends). [ ]: non-standard residue; d: D form.

Columns and labels:
[1] = biological target: Chymotrypsin (Homo sapiens, UniProt P17538); assay: Enzymatic assay, chymotrypsin inhibition (apparent Ki); format: biochemical; conditions: substrate N-succinyl-Ala-Ala-Pro-Phe-4-nitroanilide 1.6 mM
Description: (§1) The active enzyme concentrations were calculated using the equation described by Hendersen (P. J. F. Hendersen, Biochem. J. 1972, 127, 321-333). The inhibitor concentrations were determined by quantitative amino acid analysis. All assays were repeated in quadruplicate.
(§2) As above, except the substrate was N-succinyl-L-alanyl-L-alanyl-L-prolyl-L-phenylalanin-4-nitroanilide (N-succinyl—SEQ ID NO:16—4-nitroanilide; 1.6 mM).
(§3) Apparent Ki values were calculated by fitting the initial rate data to the following equation, which assumes competitive tight-binding inhibition (J. F. Williams, J. F. Morrison, Methods Enzymol. 1979, 63, 437-467): […]

[2] = biological target: T1, Trypsin (Bos taurus, UniProt P00760); assay: Enzymatic assay, determination of antitrypsin activity (apparent Ki); format: biochemical; conditions: competitive tight-binding fit
T1 sequence (P00760 24-246): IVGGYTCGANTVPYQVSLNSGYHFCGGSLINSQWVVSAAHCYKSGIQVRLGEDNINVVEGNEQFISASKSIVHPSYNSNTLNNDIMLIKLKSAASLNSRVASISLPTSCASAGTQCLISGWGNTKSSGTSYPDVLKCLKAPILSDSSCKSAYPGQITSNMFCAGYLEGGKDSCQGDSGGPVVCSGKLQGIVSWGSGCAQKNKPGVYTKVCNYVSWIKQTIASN
Description: as §1
Determination of Antitrypsin Activity
as §2, §3

[3] = biological target: Chymotrypsin; assay: enzyme inhibition, chromogenic substrate; apparent Ki fitted as competitive tight-binding inhibition
[4] = biological target: Trypsin; assay: as above
[5] = biological target: T2, Cathepsin G (human, UniProt P08311 21-244); assay: enzyme inhibition, Suc-Ala-Ala-Pro-Phe-pNA substrate, release of p-nitroanilide at 405 nm
T2 construct: the assay paragraph itself says only 'cathepsin G ... purchased from Calbiochem'; also called human cathepsin G
T2 sequence (looked up): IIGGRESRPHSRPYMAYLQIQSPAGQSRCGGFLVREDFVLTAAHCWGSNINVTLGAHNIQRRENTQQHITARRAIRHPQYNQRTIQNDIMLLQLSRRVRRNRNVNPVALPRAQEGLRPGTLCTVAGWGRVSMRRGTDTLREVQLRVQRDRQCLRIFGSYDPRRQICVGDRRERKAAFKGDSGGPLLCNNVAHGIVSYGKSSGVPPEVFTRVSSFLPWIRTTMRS
Description: Determination of Anti Cathepsin G Activity […] of a solution of cathepsin G (0.2 U/mL, corresponding to around 2 µM, purchased from Calbiochem) were incubated for 15 minutes with increasing concentrations of inhibitor. The assays were carried out at 37° C. in a total volume of 700 µl of HEPES buffer (pH 7.5; 0.1 mol/L) containing 0.05 mol/L CaCl_2. Then, 70 µl of the following substrate at 20 mM in DMSO were added (—N-succinyl-L-alanyl-L-alanyl-L-prolyl-L-phenylalanin-4-nitroanilide, (N-succinyl—SEQ ID NO:16—4-nitroanilide). The release of p-nitroanilide was monitored at 405 nm to determine the initial velocities of the reactions. Each measurement was reproduced three times (A. J. Barrett, Methods in Enzymology 1981, 80, 561-565).

Chain of Chymotrypsin (Homo sapiens, UniProt P17538) (P17538 19-263): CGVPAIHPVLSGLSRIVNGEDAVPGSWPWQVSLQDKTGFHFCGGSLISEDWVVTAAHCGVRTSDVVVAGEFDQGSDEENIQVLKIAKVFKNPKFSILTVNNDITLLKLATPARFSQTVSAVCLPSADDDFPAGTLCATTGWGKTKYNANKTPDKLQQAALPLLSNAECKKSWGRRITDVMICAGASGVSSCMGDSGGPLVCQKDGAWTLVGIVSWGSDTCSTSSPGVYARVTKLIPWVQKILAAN

Molecule: CC[C@H](C)[C@@H]1NC(=O)[C@@H]2CCCN2C(=O)[C@@H]2CCCN2C(=O)[C@H]([C@@H](C)CC)NC(=O)[C@H](CO)NC(=O)[C@H](CCCCN)NC(=O)[C@H]([C@@H](C)O)NC(=O)[C@@H]2CCCN2C(=O)[C@H]2CCCN2C1=O [Ex. 1] (cyclo(TKSIPPI[dP]P))
- Ki [1]: > 10000 nM
- Ki [2]: 100 nM

Molecule: CC[C@H](C)[C@@H]1NC(=O)[C@@H]2CCCN2C(=O)[C@@H]2CCCN2C(=O)[C@H]([C@@H](C)CC)NC(=O)[C@H](CO)NC(=O)[C@H](CCCCN)NC(=O)[C@H](C)NC(=O)[C@@H]2CCCN2C(=O)[C@H]2CCCN2C1=O [Ex. 2] (cyclo(AKSIPPI[dP]P))
- Ki [2]: 1500 nM

Molecule: CC[C@H](C)[C@@H]1NC(=O)[C@@H]2CCCN2C(=O)[C@@H]2CCCN2C(=O)[C@H]([C@@H](C)CC)NC(=O)[C@H](CO)NC(=O)[C@H](C)NC(=O)[C@H]([C@@H](C)O)NC(=O)[C@@H]2CCCN2C(=O)[C@H]2CCCN2C1=O [Ex. 3] (cyclo(TASIPPI[dP]P))
- Ki [2]: > 10000 nM

Molecule: CC[C@H](C)[C@@H]1NC(=O)[C@@H]2CCCN2C(=O)[C@@H]2CCCN2C(=O)[C@H]([C@@H](C)CC)NC(=O)[C@H](C)NC(=O)[C@H](CCCCN)NC(=O)[C@H]([C@@H](C)O)NC(=O)[C@@H]2CCCN2C(=O)[C@H]2CCCN2C1=O [Ex. 4] (cyclo(TKAIPPI[dP]P))
- Ki [2]: 700 nM

Molecule: CC[C@H](C)[C@@H]1NC(=O)[C@@H]2CCCN2C(=O)[C@@H]2CCCN2C(=O)[C@H](C)NC(=O)[C@H](CO)NC(=O)[C@H](CCCCN)NC(=O)[C@H]([C@@H](C)O)NC(=O)[C@@H]2CCCN2C(=O)[C@H]2CCCN2C1=O [Ex. 5] (cyclo(TKSAPPI[dP]P))
- Ki [2]: 1900 nM

B2: Ex. 1 (peptide)
peptide: cyclo(TKSIPPI[dP]P)
SMILES: CC[C@H](C)[C@@H]1NC(=O)[C@@H]2CCCN2C(=O)[C@@H]2CCCN2C(=O)[C@H]([C@@H](C)CC)NC(=O)[C@H](CO)NC(=O)[C@H](CCCCN)NC(=O)[C@H]([C@@H](C)O)NC(=O)[C@@H]2CCCN2C(=O)[C@H]2CCCN2C1=O
notes: Template-fixed beta-hairpin mimetic, cyclic; parent of the Ala scan
- Ki [4]: 100 nM
- Ki [5]: 100000 nM

Next, values leading:

- Ki [2]: > 25000 nM
Molecule: CC[C@H](C)[C@@H]1NC(=O)[C@H](CO)NC(=O)[C@H](CCCCN)NC(=O)[C@H]([C@@H](C)O)NC(=O)[C@@H]2CCCN2C(=O)[C@H]2CCCN2C(=O)[C@H]([C@@H](C)CC)NC(=O)[C@@H]2CCCN2C(=O)[C@H](C)NC1=O [Ex. 6] (cyclo(TKSIAPI[dP]P))

- Ki [2]: 110 nM
Molecule: CC[C@H](C)[C@@H]1NC(=O)[C@H](C)NC(=O)[C@@H]2CCCN2C(=O)[C@H]([C@@H](C)CC)NC(=O)[C@H](CO)NC(=O)[C@H](CCCCN)NC(=O)[C@H]([C@@H](C)O)NC(=O)[C@@H]2CCCN2C(=O)[C@H]2CCCN2C1=O [Ex. 7] (cyclo(TKSIPAI[dP]P))

- Ki [2]: 710 nM
Molecule: CC[C@H](C)[C@@H]1NC(=O)[C@H](CO)NC(=O)[C@H](CCCCN)NC(=O)[C@H]([C@@H](C)O)NC(=O)[C@@H]2CCCN2C(=O)[C@H]2CCCN2C(=O)[C@H](C)NC(=O)[C@@H]2CCCN2C(=O)[C@@H]2CCCN2C1=O [Ex. 8] (cyclo(TKSIPPA[dP]P))

- Ki [1]: 4400 nM
- Ki [2]: > 25000 nM
Molecule: CC[C@H](C)[C@@H]1NC(=O)[C@@H]2CCCN2C(=O)[C@@H]2CCCN2C(=O)[C@H]([C@@H](C)CC)NC(=O)[C@H](CO)NC(=O)[C@H](Cc2ccc(O)cc2)NC(=O)[C@H]([C@@H](C)O)NC(=O)[C@@H]2CCCN2C(=O)[C@H]2CCCN2C1=O [Ex. 9] (cyclo(TYSIPPI[dP]P))

- Ki [1]: 1400 nM
- Ki [2]: > 20000 nM
Molecule: CC[C@H](C)[C@@H]1NC(=O)[C@@H]2CCCN2C(=O)[C@@H]2CCCN2C(=O)[C@H]([C@@H](C)CC)NC(=O)[C@H](CO)NC(=O)[C@H](Cc2c[nH]c3ccccc23)NC(=O)[C@H]([C@@H](C)O)NC(=O)[C@@H]2CCCN2C(=O)[C@H]2CCCN2C1=O [Ex. 10] (cyclo(TWSIPPI[dP]P))

- Ki [1]: 4700 nM
- Ki [2]: > 20000 nM
Molecule: CC[C@H](C)[C@@H]1NC(=O)[C@@H]2CCCN2C(=O)[C@@H]2CCCN2C(=O)[C@H]([C@@H](C)CC)NC(=O)[C@H](CO)NC(=O)[C@H](Cc2ccccc2)NC(=O)[C@H]([C@@H](C)O)NC(=O)[C@@H]2CCCN2C(=O)[C@H]2CCCN2C1=O [Ex. 11] (cyclo(TFSIPPI[dP]P))

- Ki [1]: 3800 nM
- Ki [2]: 21 nM
Molecule: CC[C@H](C)[C@@H]1NC(=O)[C@@H]2CCCN2C(=O)[C@@H]2CCCN2C(=O)[C@H]([C@@H](C)CC)NC(=O)[C@H](CO)NC(=O)[C@H](CCCCN)NC(=O)[C@H]([C@@H](C)O)NC(=O)[C@@H]2CSSC[C@H](NC1=O)C(=O)N[C@@H](Cc1ccccc1)C(=O)N1CCC[C@@H]1C(=O)N1CCC[C@H]1C(=O)N[C@@H](CCCNC(=N)N)C(=O)N2 [Ex. 15] (cyclo(RCTKSIPPICF[dP]P); disulfide 2-10)

- Ki [3]: 3800 nM
- Ki [4]: 21 nM
- Ki [5]: 10000 nM
B1: Ex. 15 (peptide)
peptide: cyclo(RCTKSIPPICF[dP]P)
modifications: disulfide 2-10
SMILES: CC[C@H](C)[C@@H]1NC(=O)[C@@H]2CCCN2C(=O)[C@@H]2CCCN2C(=O)[C@H]([C@@H](C)CC)NC(=O)[C@H](CO)NC(=O)[C@H](CCCCN)NC(=O)[C@H]([C@@H](C)O)NC(=O)[C@@H]2CSSC[C@H](NC1=O)C(=O)N[C@@H](Cc1ccccc1)C(=O)N1CCC[C@@H]1C(=O)N1CCC[C@H]1C(=O)N[C@@H](CCCNC(=N)N)C(=O)N2
notes: n=11 mimetic made by procedure 3 (disulfide between P2 and P10)
